Counter-ions that a name gives are not always drawn.

As usually defined, the melting point is the temperature of the solid-liquid transition.

`Cc1cc2c(s1)Nc1ccccc1N=C2N1CCN(C)[C@@H](CCc2ccoc2)C1.Cl.Cl`: the melting point was 198 °C (dec.). For the compound `Cc1cc2c(s1)Nc1ccccc1N=C2N1CCN(C)[C@@H](CCc2ccccc2)C1.Cl`, the melting point came out at 225 °C.

As for `Cc1cc2c(s1)Nc1ccccc1N=C2N1CCN(C)[C@@H](CCc2ccc3ccccc3c2)C1` (as salt: hydrochloride), the melting point is 209 °C (dec.). As to `CN1CCN(C2=Nc3ccccc3Nc3sc(C(C)(C)C)cc32)C[C@@H]1CCc1ccccc1` (as salt: hydrochloride), the melting point came to 230 °C. As for `Cc1nc2c(s1)Nc1ccccc1N=C2N1CCN(C)[C@@H](Cc2ccccc2)C1` (as salt: hydrochloride), the melting point came out at 240 °C. In the case of `COc1ccccc1C[C@H]1CN(C2=Nc3ccccc3Nc3sc(C)nc32)CCN1C` (as salt: hydrochloride), the melting point came out at 185 °C. Consider `CC(C)c1nc2c(s1)Nc1ccccc1N=C2N1CCN(C)[C@@H](CCc2ccccc2)C1` (as salt: hydrochloride), for which the melting point was found to be 210 °C.

`COc1ccc(CC[C@H]2CN(C3=Nc4ccccc4Nc4sc(C(C)C)nc43)CCN2C)cc1` (as salt: hydrochloride): the melting point is 190 °C. `Cc1nc2c(s1)Nc1ccccc1N=C2N1CCN(C)[C@@H](CCc2ccc(F)cc2)C1` (as salt: hydrochloride): the melting point was determined as 230 °C. Take `CC(C)c1nc2c(s1)Nc1ccccc1N=C2N1CCN(C)[C@@H](CCc2cccc(F)c2)C1` (as salt: hydrochloride): the melting point came to 180 °C. Turning to `CC(C)c1ccc2c(c1)C(N1CCN(C)[C@@H](CCc3cccc(F)c3)C1)=Nc1ccccc1N2` (as salt: hydrochloride), the melting point worked out at 227 °C. On to `Cc1cc2c(s1)Nc1ccccc1N=C2N1CCN(C)[C@@H](CCc2ccncc2)C1` (as salt: hydrochloride) (hydrate or solvate), for which the melting point is 214 to 217 °C (dec.). Turning to `Cc1cc2c(s1)Nc1ccccc1N=C2N1CCN[C@@H](CCc2cccnc2)C1` (as salt: hydrochloride) (hydrate or solvate), the melting point is 226 to 229 °C (dec.).

In turn, `Cc1nc2c(s1)Nc1ccccc1N=C2N1CCN[C@@H](CCc2ccccc2)C1` (as salt: hydrochloride) (hydrate or solvate) [Example 460, (S)-2-Methyl-10-(3-phenethyl-piperazin-1-yl)-4H-3-thia-1,4,9-triaza-benzo[f]azulene dihydrochloride hemihydrate] came in with a melting point of 230 °C. Take `Cc1nc2c(s1)Nc1ccccc1N=C2N1CCN(C)[C@@H](CCc2ccccc2)C1` (as salt: hydrochloride) (hydrate or solvate) [Example 461, (S)-2-Methyl-10-(4-methyl-3-phenethyl-piperazin-1-yl)-4H-3-thia-1,4,9-triaza-benzo[f]azulene dihydrochloride hemihydrate]: the melting point stood at 220 °C.

In the case of `CC(C)n1nc2c(n1)C(N1CCN[C@@H](CCc3ccccc3)C1)=Nc1ccccc1N2` (as salt: hydrochloride) (hydrate or solvate) [Example 594, (S)-2-Isopropyl-10-(3-phenethyl-piperazin-1-yl)-2,4-dihydro-1,2,3,4.9-pentaaza-benzo[f]azulene dihydrochloride hemihydrate], the melting point stood at 210 °C. The same measure for `Cc1cc2c(s1)Nc1ccccc1N=C2N1CCN[C@@H](CCc2ccccn2)C1` (as salt: hydrochloride) [Example 132]: 220 to 224 °C (dec.); for `Cc1cc2c(s1)Nc1ccccc1N=C2N1CCN[C@@H](CCc2ccc(F)cc2)C1` (as salt: hydrochloride) [Example 176, 10-((S)-3-(2-(4-Fluorophenyl)-ethyl)-piperazin-1-yl)-2-methyl-4H-3-thia-4,9-diaza-benzo[f]azulene dihydrochloride]: 236 °C (dec.); for `Cc1cc2c(s1)Nc1ccccc1N=C2N1CCN[C@@H](CCc2cccc(F)c2)C1` (as salt: hydrochloride) [Example 177, 10-((S)-3-(2-(3-Fluoro-phenyl)-ethyl)-piperazin-1-yl))-2-methyl-4H-3-thia-4,9-diaza-benzo[f]azulene dihydrochloride]: 211 °C (dec.). Turning to `Cc1cc2c(s1)Nc1ccccc1N=C2N1CCN[C@@H](CCc2ccccc2F)C1` (as salt: hydrochloride) [Example 178, 10-((S)-3-(2-(2-Fluoro-phenyl)-ethyl)-piperazin-1-yl)-2-methyl-4H-3-thia-4,9-diaza-benzo[f]azulene dihydrochloride], the melting point was 209 °C (dec.). The same measure for `COc1ccc(CC[C@H]2CN(C3=Nc4ccccc4Nc4sc(C)cc43)CCN2)cc1` (as salt: hydrochloride) [Example 179, 10-((S)-3-(2-(4-methoxy-phenyl)-ethyl)-piperazin-1-yl)-2-methyl-4H-3-thia-4,9-diaza-benzo[f]azulene dihydrochloride]: 213 °C (dec.); for `COc1cccc(CC[C@H]2CN(C3=Nc4ccccc4Nc4sc(C)cc43)CCN2)c1` (as salt: hydrochloride) [Example 180, 10-((S)-3-(2-(3-Methoxy-phenyl)-ethyl)-piperazin-1-yl)-2-methyl-4H-3-thia-4,9-diaza-benzo[f]azulene dihydrochloride]: 201 °C (dec.); for `COc1ccccc1CC[C@H]1CN(C2=Nc3ccccc3Nc3sc(C)cc32)CCN1` (as salt: hydrochloride) [Example 181, 10-((S)-3-(2-(2-Methoxy-phenyl)-ethyl)-piperazin-1-yl)-2-methyl-4H-3-thia-4,9-diaza-benzo[f]azulene dihydrochloride]: 202 °C (dec.). For `Cc1cc2c(s1)Nc1ccccc1N=C2N1CCN(C)[C@@H](CCc2ccc(F)cc2)C1` (as salt: hydrochloride) [Example 182, 10-((S)-3-(2-(4-Fluoro-phenyl)-ethyl]-4-methyl-piperazin-1-yl)-2-methyl-4H-3-thia-4,9-diaza-benzo[f]azulene dihydrochloride], the melting point was 253 °C (dec.). For `Cc1cc2c(s1)Nc1ccccc1N=C2N1CCN(C)[C@@H](CCc2cccc(F)c2)C1` (as salt: hydrochloride) [Example 183, 10-((S)-3-(2-(3-Fluoro-phenyl)-ethyl)-4-methyl-piperazin-1-yl)-2-methyl-4H-3-thia-4,9-diaza-benzo[f]azulene dihydrochloride], the melting point was 225 °C (dec.). With `Cc1cc2c(s1)Nc1ccccc1N=C2N1CCN(C)[C@@H](CCc2ccccc2F)C1` (as salt: hydrochloride) [Example 184, 10-((S)-3-(2-(2-Fluoro-phenyl)-ethyl)-4-methyl-piperazin-1-yl)-2-methyl-4H-3-thia-4,9-diaza-benzo[f]azulene dihydrochloride], the melting point is 203 °C (dec.). The same measure for `COc1ccc(CC[C@H]2CN(C3=Nc4ccccc4Nc4sc(C)cc43)CCN2C)cc1` (as salt: hydrochloride) [Example 185, 10-((S)-3-(2-(4-Methoxy-phenyl)-ethyl)-4-methyl-piperazin-1-yl)-2-methyl-4H-3-thia-4,9-diaza-benzo[f]azulene dihydrochloride]: 239 °C (dec.); for `COc1cccc(CC[C@H]2CN(C3=Nc4ccccc4Nc4sc(C)cc43)CCN2C)c1` (as salt: hydrochloride) [Example 186, 10-((S)-3-(2-(3-Methoxy-phenyl)-ethyl)-4-methyl-piperazin-1-yl)-2-methyl-4H-3-thia-4.9-diaza-benzo[f]azulene dihydrochloride]: 200 °C (dec.); for `COc1ccccc1CC[C@H]1CN(C2=Nc3ccccc3Nc3sc(C)cc32)CCN1C` (as salt: hydrochloride) [Example 187, 10-((S)-3-(2-(2-Methoxy-phenyl)-ethyl)-4-methyl-piperazin-1-yl)-2-methyl-4H-3-thia-4,9-diaza-benzo[f]azulene dihydrochloride]: 213 °C (dec.).

In turn, `CC(C)c1nc2c(s1)Nc1ccccc1N=C2N1CCN(C)[C@@H](Cc2ccccc2)C1` (as salt: hydrochloride) [Example 477, (S)-10-(3-Benzyl-4-methyl-piperazin-1-yl)-2-isopropyl-4H-3-thia-1,4,9-triaza-benzo[f]azulene dihydrochloride] returned a melting point of 235 °C.

`Cc1nc2c(s1)Nc1ccccc1N=C2N1CCN(C)[C@@H](CCc2cccc(F)c2)C1` (as salt: hydrochloride) [Example 479, (S)-10-{3-[2-(3-Fluoro-phenyl)-ethyl]-4-methyl-piperazin-1-yl}-2-methyl-4H-3-thia-1,4,9-triaza-benzo[f]azulene dihydrochloride] returned a melting point of 230 °C. Compound `CC(C)c1nc2c(s1)Nc1ccccc1N=C2N1CCN(C)[C@@H](CCc2ccc(F)cc2)C1` (as salt: hydrochloride) [Example 481, (S)-10-{3-[2-(4-Fluoro-phenyl)-ethyl]-4-methyl-piperazin-1-yl}-2-isopropyl-4H-3-thia-1,4,9-triaza-benzo[f]azulene dihydrochloride] displayed a melting point of 228 °C. The same measure for `COc1ccc(CC[C@H]2CN(C3=Nc4cc(F)ccc4Nc4sc(C)cc43)CCN2C)cc1.Cl` (stereo in doubt): 180 to 182 °C; for `Cc1cc2c(s1)Nc1ccccc1N=C2N1CCN[C@@H](CCc2cccc(Cl)c2)C1` [Example 387, 10-((S)-3-[2-(3-Chloro-phenyl)-ethyl]-piperazin-1-yl)-2-methyl-4H-3-thia-4,9-diaza-benzo[f]azulene]: 68 to 74 °C (dec.). Take `Cc1cc2c(s1)Nc1ccccc1N=C2N1CCN[C@@H](CCc2ccc(Cl)cc2)C1` [Example 388, 10-((S)-3-[2-(4-Chloro-phenyl)-ethyl]-piperazin-1-yl)-2-methyl-4H-3-thia-4,9-diaza-benzo[f]azulene]: the melting point was 91 °C (dec.).

For the compound `Cc1cc2c(s1)Nc1ccccc1N=C2N1CCN[C@@H](CCc2ccccc2Cl)C1` [Example 389, 10-((S)-3-[2-(2-Chloro-phenyl)-ethyl]-piperazin-l-yl)-2-methyl-4H-3-thia-4,9-diaza-benzo[f]azulene], the melting point is 72 °C (dec.).

These data come from patent US7214673B2, “Piperazine substituted aryl benzodiazepines and their use as dopamine receptor antagonists for the treatment of psychotic disorders” (Eli Lilly and Company, priority 2002, dated 2007).
